How the values were obtained:
Assay type in all cases: cell-based, human
[1] = system: Uncharacterized protein (H7C469); test: SILAC RP-ABPP; settings: SILAC H/L
Protocol: For MS-based experiments, labelling was performed in a similar manner as described above in Example 2, maintaining the same concentrations of probes. Modifications to this protocol included using isotopically ‘light’ and ‘heavy’ SILAC cells that were also grown to near complete confluence prior to treatment. Isotopically light cells were treated with the non-clickable hydrazine probe (at the same concentration as the probe in ‘enrichment’ experiments) or the probe in the presence of 10-fold excess non-clickable hydrazine probe as a competitor (in ‘competition’ experiments). Isotopically heavy cells were treated with the probe for both types of experiments. These treatments were performed in non-SILAC media. Following treatments, cells were washed with cold PBS to remove the probe-containing media, harvested by scraping, collected by centrifugation (1,400 g, 3 min, 4° C.), washed again by resuspension in cold PBS and frozen as pellets at −80° C. until use. […]
Heavy and light parent ion chromatograms associated with successfully identified peptides were extracted and compared using CIMAGE software as previously described^69. […] To ensure that the correct pair of peaks is quantified, chromatograms are extracted within a 10 ppm error tolerance of the predicted m/z, the signal-to-noise ratio must be >2.5 and the ‘co-elution correlation score’ and ‘envelope correlation score’ must have R^2 values ≥0.8. In addition, peptides detected as ‘singletons,’ where only the heavy ion of a peptide pair was identified, but for which passed all other filtering parameters, are given a default assigned ratio of ‘20,’ which is defined as any measured ratio that is ≥20.
(§1) To further eliminate false positives and any stochastic variability in the data, protein ratios were then determined by the median peptide ratio derived from three or more unique quantified peptides. […] Most importantly, there are no robustly measured ratios for proteins identified as probe 1 targets that had measured ratios of ˜1 with probe 2. […]

HEK293T cells = test: gel-based in situ probe labelling (rhodamine-azide, in-gel fluorescence); settings: soluble and membrane proteomes, 30 minutes
Protocol: For gel-based experiments, cells were plated and grown to near complete confluence at the time of treatment. Cells were washed with cold phosphate buffered saline (PBS, pH 7.4) and replenished with serum-free DMEM (˜15% of normal passage volume, e.g. a 10 cm plate normally passaged with 10 mL media received 1.5 mL) supplemented with 10 mM Na-HEPES buffer (pH 7.5). Unless otherwise indicated, cells were incubated with probes (3 mM and 1 mM for probes 1 and 2, respectively) in the absence or presence of 10-fold excess non-clickable competitor probes (30 mM and 10 mM for 3 and 4, respectively) for 0.5 hour at 37° C. When applicable, probe and competitor were premixed before co-administering to the cells.
The cells were lysed, and the cell proteomes were conjugated to a rhodamine-azide (Rh—N3) reporter tag.
Soluble proteomes from treated cells were diluted to 1 mg/mL. To each sample (50 μL), a freshly prepared “click” or CuAAC reagent mixture (6 μL) containing 0.1 mM tris(benzyltriazolylmethyl)amine (TBTA) (3 μL/sample, 1.7 mM in 4:1 DMSO:t-BuOH), 1 mM CuSO4 (1 μL/sample, 50 mM in H2O), 25 μM azide-rhodamine (1 μL/sample, 1.25 mM in DMSO), and freshly prepared 1 mM tris(2-carboxyethyl)phosphine (TCEP) (1 μL/sample, 50 mM in PBS or H2O) was added to conjugate the fluorophore to probe-labelled proteins. TBTA was purchased from TCI and azide-rhodamine was synthesized as previously described^64. Upon addition of the click mixture, each reaction was immediately mixed by vortexing and then allowed to react at ambient temperature for 1 hour before quenching the reactions with SDS loading buffer (4× stock, 17 μL). Proteins (˜25 μg total protein loaded per gel lane) were resolved by SDS-PAGE (10% acrylamide) and visualized by in-gel fluorescence scanning on a Hitachi FMBIO-II or BioRad ChemiDoc MP flatbed fluorescence scanner.

[2] = system: HEK293T and MDA-MB-231 cells; test: determination of high-reactivity protein targets (SILAC RP-ABPP); settings: enrichment ratio >5 and competition ratio >4
Protocol: as §1, with “peptides. Protein ratios that complied with these criteria from a single experiment were then averaged with ratios acquired from ≥3 replicates to provide final values for each type of experiment in both cell lines with both probes.” for “peptides.”
Two types of experiments were performed—1) direct enrichment of probe 1-labelled proteins from heavy cells in comparison to light control cells treated with the non-clickable hydrazine (3) at the same concentration as 1 (3 mM for 0.5 h); and 2) competition experiments where both heavy and light cells were treated probe 1, but light cells were also treated with 10× competitor 3 (FIG. 3A)—in two different human cell lines (HEK293T cells and the human breast cancer cell line MDA-MB-231). […] The target list was further refined by requiring that each protein was detected with a minimum of three unique quantified peptides per experiment and by averaging protein ratios across three or more biological replicates per cell line.

| SMILES | enrichment ratioavg ([1]; probe 2 1 mM 0.5 h vs probe 4, MDA-MB-231) | competition ratioavg ([1]; probe 2 vs probe 2+10x probe 4, MDA-MB-231) | protein labeling, in-gel fluorescence (HEK293T cells) | number of high-reactivity proteins [2] | competition ratioavg ([1]; probe 1 vs probe 1+10x probe 3, cell line not given) | protein labeling, in-gel fluorescence (HEK293T cells; hydrochloride) |
| --- | --- | --- | --- | --- | --- | --- |
| C#CCCNC(=O)c1ccc(NN)cc1.Cl [probe 2, N-(but-3-yn-1-yl)-4-hydrazinylbenzamide hydrochloride] | 14 | 5 | Concentration-dependent protein labeling | 33 |  |  |
| C#CCNN.Cl [probe 1, prop-2-yn-1-ylhydrazine hydrochloride] |  |  |  | ten | 2 | Concentration-dependent protein labeling |

— patent US11226337B2, “Chemoproteomic profiling of protein electrophilic and oxidative post-translational modifications” (Zenagem, LLC, priority 2017, dated 2022)
